Ends that are not written are not given here.
Tested on: hRBCs
Settings: human erythrocytes, 1 h at 37° C.

RFGRFLRKIRRFRGKVTITIQGSARF [CMAP26 (P14→G)]
Toxicity Haemolysis (hRBCs): − (<25% dead cells)

RFGRFLRKIRRLRPK [CMAP(1-15) (F12→L), RFGRFLRKIRRLRPK]
Toxicity Haemolysis (hRBCs): − (<25% dead cells)

RFGRFLRKIRRWRPK [CMAP(1-15) (F12→W), RFGRFLRKIRRWRPK]
Toxicity Haemolysis (hRBCs): −− (<5% dead cells)

RFGRFLRKIRRFRLKVTITIQGSARF [CMAP26 (P14→L)]
Toxicity Haemolysis (hRBCs): − (<25% dead cells)

Reference: patent US9006174B2 (priority 2009, dated 2015)
